Laboratory results taken from patent US4746349A, “Method and compositions for suppressing the nitrification of ammonium in plant growth medium” (American Cyanamid Company, priority 1986, dated 1988).
Several values for one entry are separate records, joined by “and”; a condition that tells them apart may be missing. Equal entries are not always repeated. Structures can show the parent of a compound that is named as a salt.

How the values were obtained:
Nitrosomonas spp. = experiment: Nitrification of ammonium in soil incubated at 25° C. (ammonium recovery, nitrate accumulation); settings: soil 25° C.; for Concentration of nitrate nitrogen / Recovery of Ammonium Nitrogen: 200 ppm N; for Effectiveness as nitrification inhibitor, in words: 20 weeks study
Procedure, shortened: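 Silt loam soil (100 g, low residual N) at 50% water saturation given ammonium sulfate at 200 ppm N plus test compound at 0.10–0.50 ppm, duplicates, incubated 25 °C for up to 20 weeks. Inorganic N extracted with 2M KCl; ammonium, nitrite and nitrate measured by steam distillation.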

Nitrabacter = experiment: Nitrite in ammonium amended field soil incubated at 38° C.; settings: soil 38° C.; for Nitrite, reported as nitrogen: 0.50 ppm, 200 ppm N
Method: Determination of Nitrification Inhibition of Soil amended with 200 ppm of nitrogen as ammonium sulfate and 0.5 ppm of Nitrapyrin or 0.5 ppm of Maduramicin, monoammonium salt.
Soil samples prepared as described in Example 1 above are incubated at 38° C. for 20 weeks. Samples are taken at intervals during the 20 week period, extracted with 2M KCl (10:1 v/w), and assayed for ammonium nitrite and nitrate by standard steam distillation methods.

Urease = Urease activity of urea amended soil, 38° C., 24 hrs; assay type: biochemical
Method: Urease activity: Five grams (5 g) oven-dry soil is treated with 5 ml of aqueous urea solution (1000 ug/g soil), with or without the test compound, and incubated in 65 ml screw-capped glass bottles at 38° C. for 24 hrs. Three replicates of each treatment are established. Phenylphosphorodiamide (PPD) is used as a urease inhibitor for comparison with Maduramicin monoammonium salt. Urea remaining is determined after extracting the soil for 60 minutes (with shaking) with 50 ml of 2M KCl containing 0.5 ug/ml of phenylmercuric acetate and filtering the soil suspension. Urea in the extract is determined colorimetrically (Douglas & Bremner, 1970). The percentage inhibition is calculated from (A-B)/(C-B) X 100-% inhibition; where A=the amount of urea found after incubation with the compound, B=the amount of urea found in the non-treated soil, and C=the amount of urea added.

[1] = test system: corn (Dekalb T2000, B73×LH 38); experiment: Field evaluation: yield of corn, silt loam location; assay type: in vivo
From the text: Field Evaluation: Field evaluations are based on the N content of corn leaf tissue and grain yield utilizing two soil types. Replicate (4X) field plots are established at two different locations, one having (I) silt loam soil and one (II) with sandy loam soil. These soils had been previously cropped to non-fertilized corn to reduce the level of residual N. Maduramicin monoammonium salt is applied (0.25, 0.125, 0.07 ppm) with NH3 (84 or 168 kg N/ha) through a "downstream" by an injection system into silt loam plots. Nitrapyrin (0.25 ppm=0.56 kg a.i./ha), nitrogen checks, benzyl alcohol (1.16L/ha) (BA) and a O nitrogen check are included for comparison. Individual replicate plot sizes are 3.04M×22.8M (4, 76-cm corn rows×22.8M long) Anhydrous ammonia are injected on 76-cm centers.
Urea, treated or non-treated with Maduramicin monoammonium salt is broadcast on the surface of sandy loam plots. Plots are then planted with corn the day following treatment. Dekalb T2000 is planted 10 May on silt loam plots and Pioneer 3352 is planted 11 May in sandy loam plots.
Corn ear leaf tissues collected at silking on silt loam plots or 60 days post silking (on silt loam and sandy loam plots) are collected from each plot and assayed for total N (AOAC procedures). Grain yields are determined by harvesting the two center rows×15.2 m of each plot.

[2] = test system: corn (Dekalb T2000, B73×LH 38); experiment: Field evaluation: corn ear leaf tissue nitrogen, silt loam plots; assay type: in vivo; settings: inhibitor 0.11 kg/ha, ear leaf at silking

Structure (SMILES): CO[C@@H]1[C@@H](OC)[C@H](C)[C@@](O)(CC(=O)O)O[C@H]1[C@H](C)[C@H]1O[C@@]2(CC[C@@](C)([C@H]3CC[C@@](C)([C@@H]4O[C@@H]([C@H]5O[C@](C)(O)[C@H](C)C[C@@H]5C)C[C@@H]4O[C@@H]4C[C@H](OC)[C@@H](OC)[C@H](C)O4)O3)O2)C[C@H](O)[C@H]1C [Maduramicin monoammonium salt, Maduramicin]
- Effectiveness compared with 0.5 ppm nitrapyrin, in words (Nitrosomonas spp.; 0.10 ppm): not as effective as the 0.5 ppm rate of nitrapyrin
- Concentration of nitrate nitrogen (Nitrosomonas spp.; 0.10 ppm, week 0): 18 PPM
- Recovery of Ammonium Nitrogen (Nitrosomonas spp.; 0.10 ppm, week 0): 195 PPM
- Concentration of nitrate nitrogen (Nitrosomonas spp.; 0.10 ppm, week 1): 20 PPM
- Recovery of Ammonium Nitrogen (Nitrosomonas spp.; 0.10 ppm, week 1): 168 PPM
- Concentration of nitrate nitrogen (Nitrosomonas spp.; 0.10 ppm, week 2): 19 PPM
- Recovery of Ammonium Nitrogen (Nitrosomonas spp.; 0.10 ppm, week 2): 178 PPM
- Concentration of nitrate nitrogen (Nitrosomonas spp.; 0.10 ppm, week 4): 24 PPM
- Recovery of Ammonium Nitrogen (Nitrosomonas spp.; 0.10 ppm, week 4): 176 PPM
- Concentration of nitrate nitrogen (Nitrosomonas spp.; 0.10 ppm, week 7): 75 PPM
- Recovery of Ammonium Nitrogen (Nitrosomonas spp.; 0.10 ppm, week 7): 125 PPM
- Concentration of nitrate nitrogen (Nitrosomonas spp.; 0.10 ppm, week 9): 59 PPM
- Recovery of Ammonium Nitrogen (Nitrosomonas spp.; 0.10 ppm, week 9): 110 PPM
- Concentration of nitrate nitrogen (Nitrosomonas spp.; 0.10 ppm, week 12): 152 PPM
- Recovery of Ammonium Nitrogen (Nitrosomonas spp.; 0.10 ppm, week 12): 55 PPM
- Concentration of nitrate nitrogen (Nitrosomonas spp.; 0.10 ppm, week 16): 153 PPM
- Recovery of Ammonium Nitrogen (Nitrosomonas spp.; 0.10 ppm, week 16): 67 PPM
- Concentration of nitrate nitrogen (Nitrosomonas spp.; 0.10 ppm, week 20): 134 PPM
- Recovery of Ammonium Nitrogen (Nitrosomonas spp.; 0.10 ppm, week 20): 39 PPM
- Specific inhibition of nitrification through activity against Nitrosomonas spp., in words (Nitrosomonas spp.; 0.1 to 0.5 ppm): appear to specifically inhibit nitrification through activity against Nitrosomonas spp.
- Concentration of nitrate nitrogen (Nitrosomonas spp.; 0.25 ppm, week 0): 19 PPM
- Recovery of Ammonium Nitrogen (Nitrosomonas spp.; 0.25 ppm, week 0): 194 PPM
- Concentration of nitrate nitrogen (Nitrosomonas spp.; 0.25 ppm, week 1): 18 PPM
- Recovery of Ammonium Nitrogen (Nitrosomonas spp.; 0.25 ppm, week 1): 162 PPM
- Concentration of nitrate nitrogen (Nitrosomonas spp.; 0.25 ppm, week 2): 19 PPM
- Recovery of Ammonium Nitrogen (Nitrosomonas spp.; 0.25 ppm, week 2): 164 PPM
- Concentration of nitrate nitrogen (Nitrosomonas spp.; 0.25 ppm, week 4): 19 PPM
- Recovery of Ammonium Nitrogen (Nitrosomonas spp.; 0.25 ppm, week 4): 187 PPM
- Concentration of nitrate nitrogen (Nitrosomonas spp.; 0.25 ppm, week 7): 21 PPM
- Recovery of Ammonium Nitrogen (Nitrosomonas spp.; 0.25 ppm, week 7): 198 PPM
- Concentration of nitrate nitrogen (Nitrosomonas spp.; 0.25 ppm, week 9): 25 PPM
- Recovery of Ammonium Nitrogen (Nitrosomonas spp.; 0.25 ppm, week 9): 185 PPM
- Concentration of nitrate nitrogen (Nitrosomonas spp.; 0.25 ppm, week 12): 23 PPM
- Recovery of Ammonium Nitrogen (Nitrosomonas spp.; 0.25 ppm, week 12): 192 PPM
- Concentration of nitrate nitrogen (Nitrosomonas spp.; 0.25 ppm, week 16): 64 PPM
- Recovery of Ammonium Nitrogen (Nitrosomonas spp.; 0.25 ppm, week 16): 164 PPM
- Concentration of nitrate nitrogen (Nitrosomonas spp.; 0.25 ppm, week 20): 85 PPM
- Recovery of Ammonium Nitrogen (Nitrosomonas spp.; 0.25 ppm, week 20): 102 PPM
- Time through which nitrification is delayed or inhibited (Nitrosomonas spp.; 0.5 ppm): ≥ 20 weeks
- Concentration of nitrate nitrogen (Nitrosomonas spp.; 0.50 ppm, week 0): 18 PPM
- Recovery of Ammonium Nitrogen (Nitrosomonas spp.; 0.50 ppm, week 0): 194 PPM
- Concentration of nitrate nitrogen (Nitrosomonas spp.; 0.50 ppm, week 1): 20 PPM
- Recovery of Ammonium Nitrogen (Nitrosomonas spp.; 0.50 ppm, week 1): 162 PPM
- Concentration of nitrate nitrogen (Nitrosomonas spp.; 0.50 ppm, week 2): 18 PPM
- Recovery of Ammonium Nitrogen (Nitrosomonas spp.; 0.50 ppm, week 2): 166 PPM
- Concentration of nitrate nitrogen (Nitrosomonas spp.; 0.50 ppm, week 4): 21 PPM
- Recovery of Ammonium Nitrogen (Nitrosomonas spp.; 0.50 ppm, week 4): 170 PPM
- Concentration of nitrate nitrogen (Nitrosomonas spp.; 0.50 ppm, week 7): 21 PPM
- Recovery of Ammonium Nitrogen (Nitrosomonas spp.; 0.50 ppm, week 7): 194 PPM
- Concentration of nitrate nitrogen (Nitrosomonas spp.; 0.50 ppm, week 9): 25 PPM
- Recovery of Ammonium Nitrogen (Nitrosomonas spp.; 0.50 ppm, week 9): 193 PPM
- Concentration of nitrate nitrogen (Nitrosomonas spp.; 0.50 ppm, week 12): 18 PPM
- Recovery of Ammonium Nitrogen (Nitrosomonas spp.; 0.50 ppm, week 12): 189 PPM
- Concentration of nitrate nitrogen (Nitrosomonas spp.; 0.50 ppm, week 16): 28 PPM
- Recovery of Ammonium Nitrogen (Nitrosomonas spp.; 0.50 ppm, week 16): 209 PPM
- Concentration of nitrate nitrogen (Nitrosomonas spp.; 0.50 ppm, week 20): 44 PPM
- Recovery of Ammonium Nitrogen (Nitrosomonas spp.; 0.50 ppm, week 20): 175 PPM
- Effectiveness as nitrification inhibitor, in words (Nitrosomonas spp.; X-14868A monammonium salt): most effective nitrification inhibitor
- Effectiveness as nitrification inhibitor, in words (Nitrosomonas spp.; X-14868 monoammonium salt): considerably more effective than nitrapyrin
- Activity against Nitrabacter, in words (Nitrabacter; 0.5 ppm): no activity
- Nitrite, reported as nitrogen (Nitrabacter; week 0): 9 ppm
- Nitrite, reported as nitrogen (Nitrabacter; week 1): 8 ppm
- Nitrite, reported as nitrogen (Nitrabacter; week 2): 4 ppm
- Nitrite, reported as nitrogen (Nitrabacter; week 4): 3 ppm
- Nitrite, reported as nitrogen (Nitrabacter; week 7): -5 ppm
- Nitrite, reported as nitrogen (Nitrabacter; week 9): 9 ppm
- Nitrite, reported as nitrogen (Nitrabacter; week 12): 6 ppm
- Nitrite, reported as nitrogen (Nitrabacter; week 16): 19 ppm
- Nitrite, reported as nitrogen (Nitrabacter; week 20): 37 ppm
- % INHIBITION (urease) (Urease; (A-B)/(C-B) X 100, urea 1000 ug/g soil): 16%
- AVERAGE amount of urea remaining (Urease; average of 3 replicates, urea 1000 ug/g soil): 483 µg/g
- AMOUNT REMAINING (urea) (Urease; single replicates, urea 1000 ug/g soil): 492 µg/g and 477 µg/g
- AVERAGE YIELD 4-REPLICATES ([1]; N 84 kg/ha, chemical 0.11 kg/ha): 136.6 HECTOLITERS/HECTARE
- AVERAGE YIELD 4-REPLICATES ([1]; N 84 kg/ha, chemical 0.28 kg/ha): 129.6 HECTOLITERS/HECTARE
- AVERAGE YIELD 4-REPLICATES ([1]; N 84 kg/ha, chemical 0.56 kg/ha): 131.4 HECTOLITERS/HECTARE
- AVERAGE YIELD 4-REPLICATES ([1]; N 168 kg/ha, chemical 0.11 kg/ha): 154.0 HECTOLITERS/HECTARE
- AVERAGE YIELD 4-REPLICATES ([1]; N 168 kg/ha, chemical 0.28 kg/ha): 146.2 HECTOLITERS/HECTARE
- AVERAGE YIELD 4-REPLICATES ([1]; N 168 kg/ha, chemical 0.56 kg/ha): 147.9 HECTOLITERS/HECTARE
- Corn Leaf Tissue Analysis (total N) ([2]; NH3 84 kg N/ha): 257 10^2 ug/g
- Corn Leaf Tissue Analysis (total N) ([2]; NH3 168 kg N/ha): 268 10^2 ug/g
